Results reported in patent US11911386B2, “Methods of treating B-cell proliferative disorder” (BeiGene Switzerland GmbH, priority 2022, dated 2024).
Where two headings read alike, the source gives them in different places.

C=CC(=O)N1CCC([C@@H]2CCNc3c(C(N)=O)c(-c4ccc(Oc5ccccc5)cc4)nn32)CC1 [zanubrutinib, (S)-7-(1-acryloylpiperidin-4-yl)-2-(4-phenoxyphenyl)-4,5,6,7-tetrahydropyrazolo[1,5-a]pyrimidine-3-carboxamide]
6 (9.0) n (%): Diarrhoea (Grade 1) | Nausea (Grade 1) | Fatigue (Grade 2) | Pain in extremity (Total)
9.5%: SAE (160 mg bid group)
8.0%: Neutropenia (320 mg qd group)
7.0%: Patients who discontinued zanubrutinib due to AEs (Cohort 1)
2.8%: Serious atrial fibrillation (Safety Analysis Set, 72 patients)
< 10%: Rate of zanubrutinib discontinuation due to AEs (in vivo)
20.9%: Fatigue (67 patients)
32.0%: Grade ≥3 AE (320 mg qd group)
12 (17.9) n (%): Contusion (Grade 1)
3 (4.5) n (%): Constipation (Grade 1) | Dizziness (Grade 1) | Insomnia (Grade 1) | Pain in extremity (Grade 1) | Pruritus (Grade 1) | Seborrheic keratosis (Grade 1) | Upper respiratory tract infection (Grade 1) | Bronchitis (Grade 2) | Cellulitis (Grade 2) | Contusion (Grade 2) | Pain in extremity (Grade 2)
10 (14.9) n (%): Myalgia (Total)
3.0%: Syncope, grade ≥3 (67 patients)
4.8%: Treatment discontinuation due to AEs (160 mg bid group)
20.0%: Patients who discontinued zanubrutinib (Cohort 2)
4.5%: Atrial fibrillation (67 patients, all grade 2)
7.5%: Epistaxis (67 patients) | Petechiae (67 patients)
14 (20.9) n (%): Fatigue (Total)
15.8%: Patients who discontinued zanubrutinib (Cohort 1)
1.5%: Death (COVID-19 pneumonia) (67 patients)
95.2%: Patients with ≥1 AE (160 mg bid group)
25 patients: Bleeding events (in vivo)
9.0%: Patients requiring dose reductions (in vivo)
12.0%: Treatment discontinuation due to AEs (320 mg qd group)
15 (22.4) n (%): Contusion (Total)
2 (3.0) n (%): Back pain (Grade 1) | Skin laceration (Grade 1) | Back pain (Grade 2) | Diarrhoea (Grade 2) | Insomnia (Grade 2) | Myalgia (Grade 2) | Neutrophil count decrease (Grade 2) | Skin laceration (Grade 2) | Neutrophil count decrease (Grade 3)
9 (13.4) n (%): Arthralgia (Total) | Diarrhoea (Total)
22.4%: Contusion (67 patients)
1 (1.5) n (%): Urinary tract infection (Grade 1) | Constipation (Grade 2) | Cough (Grade 2) | Epistaxis (Grade 2) | Muscle spasms (Grade 2) | Nausea (Grade 2) | Pruritus (Grade 2) | Seborrheic keratosis (Grade 2) | Upper respiratory tract infection (Grade 2) | Bronchitis (Grade 3) | Cellulitis (Grade 3) | Diarrhoea (Grade 3) | Hypertension (Grade 3) | Neutrophil count decrease (Grade 4)
8 (11.9) n (%): Fatigue (Grade 1) | Myalgia (Grade 1) | Hypertension (Total)
16.0%: SAE (320 mg qd group)
4 (6.0) n (%): Arthralgia (Grade 1) | Cough (Grade 1) | Epistaxis (Grade 1) | Headache (Grade 1) | Muscle spasms (Grade 1) | Dizziness (Grade 2) | Urinary tract infection (Grade 2) | Back pain (Total) | Bronchitis (Total) | Cellulitis (Total) | Constipation (Total) | Headache (Total) | Pruritus (Total) | Seborrheic keratosis (Total) | Skin laceration (Total) | Upper respiratory tract infection (Total)
13.4%: Arthralgia (67 patients) | Diarrhoea (67 patients)
96%: Patients with ≥1 AE (320 mg qd group)
28.6%: Grade ≥3 AE (160 mg bid group)
105 days: Median time to onset of first hypertensive event (in vivo)
5 (7.5) n (%): Petechiae (Grade 1) | Rash (Grade 1) | Arthralgia (Grade 2) | Neutropenia (Grade 3) | Cough (Total) | Epistaxis (Total) | Insomnia (Total) | Muscle spasms (Total) | Neutropenia (Total) | Neutrophil count decrease (Total) | Petechiae (Total) | Rash (Total) | Urinary tract infection (Total)
14.9%: Myalgia (67 patients)
95.5%: Patients with ≥1 AE (67 patients)
11.9%: Hypertension (67 patients) | Neutropenia or neutrophil count decreased, grade ≥3 (67 patients) | Serious AEs (67 patients)
29.9%: Grade ≥3 AEs (67 patients)
0 (0.0) n (%): Bronchitis (Grade 1) | Cellulitis (Grade 1) | Hypertension (Grade 1) | Neutropenia (Grade 1) | Neutrophil count decrease (Grade 1) | Headache (Grade 2) | Neutropenia (Grade 2) | Petechiae (Grade 2) | Rash (Grade 2) | Arthralgia (Grade 3) | Back pain (Grade 3) | Constipation (Grade 3) | Contusion (Grade 3) | Cough (Grade 3) | Dizziness (Grade 3) | Epistaxis (Grade 3) | Fatigue (Grade 3) | Headache (Grade 3) | Insomnia (Grade 3) | Muscle spasms (Grade 3) | Myalgia (Grade 3) | Nausea (Grade 3) | Pain in extremity (Grade 3) | Petechiae (Grade 3) | Pruritus (Grade 3) | Rash (Grade 3) | Seborrheic keratosis (Grade 3) | Skin laceration (Grade 3) | Upper respiratory tract infection (Grade 3) | Urinary tract infection (Grade 3) | Arthralgia (Grade 4) | Back pain (Grade 4) | Bronchitis (Grade 4) | Cellulitis (Grade 4) | Constipation (Grade 4) | Contusion (Grade 4) | Cough (Grade 4) | Diarrhoea (Grade 4) | Dizziness (Grade 4) | Epistaxis (Grade 4) | Fatigue (Grade 4) | Headache (Grade 4) | Hypertension (Grade 4) | Insomnia (Grade 4) | Muscle spasms (Grade 4) | Myalgia (Grade 4) | Nausea (Grade 4) | Neutropenia (Grade 4) | Pain in extremity (Grade 4) | Petechiae (Grade 4) | Pruritus (Grade 4) | Rash (Grade 4) | Seborrheic keratosis (Grade 4) | Skin laceration (Grade 4) | Upper respiratory tract infection (Grade 4) | Urinary tract infection (Grade 4)
7 (10.4) n (%): Hypertension (Grade 2) | Dizziness (Total) | Nausea (Total)
19.0%: Neutropenia (160 mg bid group)
